Measurements published in patent US8802638B1, “Flavonoid treatment of glycogen synthase kinase-based disease” (University of South Florida, priority 2007, dated 2014).

Legend:
SweAPP N2a cells = test: APP proteolysis (Aβ ELISA, IP, APP CTF Western blot) in SweAPP N2a cells; type: cell-based, murine
Method: Cultured cells or mouse brain were lysed in ice-cold lysis buffer described above, and an aliquot corresponding to 50 μg of total protein was electrophoretically separated using 12% Tris-HCl or 16.5% Tris-tricine gels. Electrophoresed proteins were then transferred to PVDF membranes, washed in dH2O, and blocked for 1 hr at ambient temperature in Tris-buffered saline (TBS; Bio-Rad) containing 5% (w/v) non-fat dry milk. After blocking, membranes were hybridized for 1 hr at ambient temperature with various primary antibodies. Membranes were then washed 3× for 5 min each in dH2O and incubated for 1 hr at ambient temperature with the appropriate HRP-conjugated secondary antibody (1:1,000). Antibodies were obtained against the amino-terminus and carboxyl-terminus of PS1 (Chemicon, Temecula, Calif.), amino-terminus and carboxyl-terminus of APP (22C11), actin (Roche, Basel, Switzerland), Aβ (6E10, 48G) (Signet Laboratories, Dedham, Mass.), phosphor-GSK3α (ser^21, clone BK202) (Upstate, Lake Placid, N.Y.), phospho-GSK3α/β (pTyr^279/216) (Sigma), phospho-GSK-3β (Ser^9) (Sigma) and total GSK-3α/β (Sigma). All antibodies were diluted in TBS containing 5% (w/v) of non-fat dry milk. Blots were developed using the luminol reagent (Pierce Biotechnology). Densitometric analysis was done as previously described using a FluorS Multiimager with Quantity One™ software (39). Immunoprecipitation was performed for detection of sAPP-α, sAPP-β and Aβ by incubating 200 μg of total protein of each sample with various sequential combinations of 6E10 (1:100) and/or 22C11 (1:100) antibodies overnight with gentle rocking at 4° C., and 10 μL of 50% protein A-Sepharose beads were then added to the sample (1:10; Sigma) prior to gentle rocking for an additional 4 hrs at 4° C. Following washes with 1× cell lysis buffer, samples were subjected to Western blot as described above. Antibodies used for Western blot included the APP-carboxyl-terminal antibody (1:50)), amino-terminal APP antibody (clone 22C11), or 6E10 (1:1,000), or actin antibody (1:1,500; as an internal reference control). γ-secretase activity was quantified in cell lysates using available kits based on secretase-specific peptides conjugated to fluorogenic reporter molecules.
SweAPP N2a cells and primary neuronal cells derived from Tg2576 mice were treated with varying doses of luteolin to examine luteolin's effect on APP proteolysis. Cellular extracts were collected and analyzed using immunoprecipitation (IP), Western blot, and ELISA. […] See FIGS. 1 through 2(B) and 5 through 6(B). SweAPP N2a and primary Tg2576-derived neuronal cells CTF profiles were analyzed following luteolin treatment to determine at which level luteolin impacts amyloid processing.

Tg2576 mice = test: cerebral Aβ levels by ELISA in luteolin-treated Tg2576 mice; type: in vivo; details: 20 mg/kg i.p. daily for 30 days
Method: (§1) Sixteen (8♂/8♀) Tg2576 mice (Taconic, Germantown, N.Y.) were used; 8 mice received luteolin, and the other 8 received phosphate buffered saline (PBS). Beginning at 8 months of age, Tg2576 mice were intraperitoneally injected with luteolin (20 mg/kg) or PBS daily for 30 days based on previously described methods. These mice were then sacrificed at 9 months of age for analyses of Aβ levels and Aβ load in the brain according to previously described methods. Animals were housed and maintained in the College of Medicine Animal Facility at the University of South Florida (USF), and all experiments were in compliance with protocols approved by the USF Institutional Animal Care and Use Committee.
Eight month-old Tg2576 mice were treated with 20 mg/kg luteolin administered by daily intraperitoneal injection for 30 days to validate the above findings in vivo. […] Phospho-GSK-3α/β-positive neuronal cells were examined under bright-field using an Olympus BX-51 microscope.
Brain homogenates were immunoprecipitated by PS1 antibody and probed for APP to confirm the proposed mechanism. […] To assess this decrease, ELISA was conducted on both soluble and insoluble Aβ1-40, 42.

PS1 = PS1 processing and PS1-APP association in brain homogenates of luteolin-treated Tg2576 mice; type: in vivo; details: 20 mg/kg i.p. daily for 30 days
Method: as §1
(§2) Cultured cells or mouse brain were lysed in ice-cold lysis buffer described above, and an aliquot corresponding to 50 μg of total protein was electrophoretically separated using 12% Tris-HCl or 16.5% Tris-tricine gels. Electrophoresed proteins were then transferred to PVDF membranes, washed in dH2O, and blocked for 1 hr at ambient temperature in Tris-buffered saline (TBS; Bio-Rad) containing 5% (w/v) non-fat dry milk. After blocking, membranes were hybridized for 1 hr at ambient temperature with various primary antibodies. Membranes were then washed 3× for 5 min each in dH2O and incubated for 1 hr at ambient temperature with the appropriate HRP-conjugated secondary antibody (1:1,000). […] Densitometric analysis was done as previously described using a FluorS Multiimager with Quantity One™ software (39). […] Antibodies used for Western blot included the APP-carboxyl-terminal antibody (1:50)), amino-terminal APP antibody (clone 22C11), or 6E10 (1:1,000), or actin antibody (1:1,500; as an internal reference control). γ-secretase activity was quantified in cell lysates using available kits based on secretase-specific peptides conjugated to fluorogenic reporter molecules. […]
Brain homogenates from these mice were subsequently analyzed by immunoprecipitation, Western blot, and ELISA, seen in FIGS. 28(A) through 37. […]

TACE, ADAM10, sAPPα = test: non-amyloidogenic APP processing (TACE, ADAM10 maturation, sAPPα release); type: cell-based; details: data not shown
Description: The presence of phosphorylated PS1 CTFs corresponds with reduction of Aβ generation and accumulation of the β-CTF of APP, as was observed following luteolin treatment. The accumulation β-CTFs following luteolin treatment is a fraction of β-CTF seen after direct γ-secretase inhibitor treatment (data not shown). In view of this finding, selective GSK-3 inactivation is a less toxic, more regulative, substrate-specific mode of γ-secretase inhibition. Earlier studies routinely employed phorbol-12,13-dibutyrate (PDBu), a potent PKC activator, as their phosphorylating agent. Thus, luteolin was tested for similar PKC activation, rather than a GSK-3 inhibitor. […] Additionally, there are no indications GSK-3α inhibition affects non-amyloidogenic processing of APP, since luteolin, SB-415286, and GSK-3α RNAi treatment have no effect on the maturation of TACE, ADAM10, or sAPPα release (data not shown), which are all strongly associated with PKC activation.

β-catenin = β-catenin after luteolin treatment; type: cell-based; details: data not shown
[1] = cited from earlier work
GSK-3α/β = GSK-3α/β (Mus musculus, UniProt Q2NL51); test: Western blot of phosphorylated GSK-3α/β forms in SweAPP N2a cells; type: cell-based, murine; design: endogenous in cells; host or cells: SweAPP N2a cells; details: 20 μM
Method: as §2

GSK-3α/β, sequence (Q2NL51 2-490): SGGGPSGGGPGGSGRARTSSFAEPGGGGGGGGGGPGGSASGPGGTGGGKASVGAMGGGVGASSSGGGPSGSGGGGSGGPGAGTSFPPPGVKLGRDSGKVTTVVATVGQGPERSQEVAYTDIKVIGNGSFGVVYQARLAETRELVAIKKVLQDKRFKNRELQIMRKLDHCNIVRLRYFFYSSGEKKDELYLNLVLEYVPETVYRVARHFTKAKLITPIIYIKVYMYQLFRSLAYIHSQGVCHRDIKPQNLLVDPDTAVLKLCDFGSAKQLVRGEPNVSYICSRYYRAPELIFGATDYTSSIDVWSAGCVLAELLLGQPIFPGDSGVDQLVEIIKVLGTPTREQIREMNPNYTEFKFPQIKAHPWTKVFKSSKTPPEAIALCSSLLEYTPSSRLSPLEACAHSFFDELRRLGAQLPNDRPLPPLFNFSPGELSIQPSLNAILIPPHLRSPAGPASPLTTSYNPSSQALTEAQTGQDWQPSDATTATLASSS

## O=c1cc(-c2ccc(O)c(O)c2)oc2cc(O)cc(O)c12 [luteolin]
SweAPP N2a cells; dose dependent, 12 hrs, Western blot densitometry, SweAPP N2a cells
  accumulation of both α and β CTFs (increase over control): 2-3 fold
SweAPP N2a cells; luteolin 20 μM, 12 hrs, SweAPP N2a cells
  Aβ1-40, 42 peptide generation abrogated: > 70%
SweAPP N2a cells; luteolin 40 μM, 12 hrs, SweAPP N2a cells
  Aβ1-40, 42 peptide generation abrogated: > 85%
SweAPP N2a cells; result in words, ELISA/IP/Western blot
  Aβ1-40, 42 production: effectively reduced Aβ1-40, 42 production in either cell line in a dose dependent manner
Tg2576 mice
  reduction of soluble Aβ1-40 in brain homogenates: 25%
  reduction of soluble Aβ1-42 in brain homogenates: 49%
PS1
  holo APP expression in brain homogenates: no significant changes
PS1; IP with PS1 antibody
  PS1-APP association in brain homogenates: effectively abolished PS1-APP association
PS1; brain homogenates
  PS1 processing (PS1 CTF to actin ratio): significantly lower levels of PS1 processing
TACE, ADAM10, sAPPα
  maturation of TACE, ADAM10, or sAPPα release: no effect
β-catenin
  β-catenin: remains unaffected
[1]; in vivo
  half-life in plasma: < 4 h
[1]; oral
  oral bioavailability: < 2%
GSK-3α/β; SweAPP N2a cells
  levels of serine 21-phosphorylated, inactive GSK-3α isoforms: increased the levels
GSK-3α/β; through 3 hrs (FIGS. 13 and 17)
  levels of tyrosine 279 phosphorylated active GSK-3α isoforms: concurrently decreased in time-dependent manner
